In PubChem BioAssay (NCI):
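All cell lines were grown in 96-well plates and treated with compound for 48 hours. Here, GI50 denotes the concentration required for 50% inhibition of growth. Definition used: TGI = concentration required for complete inhibition of growth.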

Tests used:
Assay in all cases: NCI-60 cell line screen, 48 h; in the data active = GI50 below about 0.43 µM; inactive = the rest
[1] = tested on: HL-60(TB) leukemia
[2] = tested on: RPMI-8226 leukemia
[3] = tested on: SNB-75 CNS
[4] = tested on: A549 NSCLC
[5] = tested on: UO-31 renal
[6] = tested on: COLO 205 colon
[7] = tested on: DU-145 prostate
[8] = tested on: MDA-MB-231 breast
[9] = tested on: A498 renal
[10] = tested on: CAKI-1 renal
[11] = tested on: RXF 393 renal
[12] = tested on: UACC-257 melanoma
[13] = tested on: M14 melanoma
[14] = tested on: NCI-H23 lung
[15] = tested on: SNB-19 CNS
[16] = tested on: SK-MEL-5 melanoma
[17] = tested on: OVCAR-3 ovarian
[18] = tested on: SW-620 colon
[19] = tested on: HOP-92 NSCLC
[20] = tested on: OVCAR-5 ovarian
[21] = tested on: SF-295 CNS
[22] = tested on: K-562 leukemia
[23] = tested on: EKVX NSCLC
[24] = tested on: OVCAR-8 ovarian
[25] = tested on: HT29 colon
[26] = tested on: 786-0 renal
[27] = tested on: UACC-62 melanoma
[28] = tested on: HCT-15 colon
[29] = tested on: SK-OV-3 ovarian
[30] = tested on: MCF7 breast
[31] = tested on: MDA-MB-435
[32] = tested on: TK-10 renal
[33] = tested on: SK-MEL-28 melanoma
[34] = tested on: PC-3 prostate
[35] = tested on: SK-MEL-2 melanoma
[36] = tested on: SF-268 CNS
[37] = tested on: SN12C renal
[38] = tested on: LOX IMVI melanoma
[39] = tested on: NCI-H226 lung
[40] = tested on: IGROV1 ovarian
[41] = tested on: BT-549 breast
[42] = tested on: NCI/ADR-RES ovarian
[43] = tested on: T-47D breast
[44] = tested on: HOP-62 NSCLC
[45] = tested on: ACHN renal
[46] = tested on: SR leukemia
[47] = tested on: KM12 colon
[48] = tested on: HS 578T breast
[49] = tested on: NCI-H460 lung
[50] = tested on: HCC-2998 colon
[51] = tested on: OVCAR-4 ovarian
[52] = tested on: MOLT-4 leukemia
[53] = tested on: MALME-3M melanoma
[54] = tested on: U251 CNS
[55] = tested on: NCI-H522 lung
[56] = tested on: SF-539 CNS
[57] = tested on: HCT-116 colon
[58] = tested on: CCRF-CEM leukemia

CC(=O)Nc1ccc2c(c1)oc(=O)c1cc(NC(C)=O)ccc12
52.5 µM: TGI [47]
inactive: GI50 [1] 41.3 µM | GI50 [2] 52.8 µM | GI50 [3] > 100 µM | GI50 [4] > 100 µM | GI50 [5] > 100 µM | GI50 [6] 41.7 µM | GI50 [7] > 100 µM | GI50 [8] 48.5 µM | GI50 [9] > 100 µM | GI50 [10] > 100 µM | GI50 [11] > 100 µM | GI50 [12] > 100 µM | GI50 [13] 91.6 µM | GI50 [14] > 100 µM | GI50 [15] > 100 µM | GI50 [16] 96.5 µM | GI50 [17] > 100 µM | GI50 [18] > 100 µM | GI50 [19] 29.6 µM | GI50 [20] > 100 µM | GI50 [21] > 100 µM | GI50 [22] > 100 µM | GI50 [23] > 100 µM | GI50 [24] > 100 µM | GI50 [25] 54 µM | GI50 [26] > 100 µM | GI50 [27] 63.4 µM | GI50 [28] > 100 µM | GI50 [29] > 100 µM | GI50 [30] 59.8 µM | GI50 [31] > 100 µM | GI50 [32] 98.7 µM | GI50 [33] > 100 µM | GI50 [34] 92.4 µM | GI50 [35] > 100 µM | GI50 [36] 50.5 µM | GI50 [37] 29.6 µM | GI50 [38] 75.6 µM | GI50 [39] > 100 µM | GI50 [40] 83.4 µM | GI50 [41] > 100 µM | GI50 [42] > 100 µM | GI50 [43] 59.6 µM | GI50 [44] > 100 µM | GI50 [45] > 100 µM | GI50 [46] 8.52 µM | GI50 [47] 21.7 µM | GI50 [48] 63.4 µM | GI50 [49] > 100 µM | GI50 [50] 52.4 µM | GI50 [51] > 100 µM | GI50 [52] 18.9 µM | GI50 [53] 35.6 µM | GI50 [54] > 100 µM | GI50 [55] 55.7 µM | GI50 [56] > 100 µM | GI50 [57] 80.8 µM
> 100 µM: TGI [1] | TGI [2] | TGI [3] | TGI [4] | TGI [5] | TGI [6] | TGI [7] | TGI [8] | TGI [9] | TGI [10] | TGI [11] | TGI [12] | TGI [13] | TGI [14] | TGI [15] | TGI [16] | TGI [17] | TGI [18] | TGI [19] | TGI [20] | TGI [21] | TGI [22] | TGI [23] | TGI [24] | TGI [25] | TGI [26] | TGI [27] | TGI [28] | TGI [29] | TGI [30] | TGI [31] | TGI [32] | TGI [33] | TGI [34] | TGI [35] | TGI [36] | TGI [37] | TGI [38] | TGI [39] | TGI [40] | TGI [41] | TGI [42] | TGI [43] | TGI [44] | TGI [45] | TGI [48] | TGI [49] | TGI [50] | TGI [51] | TGI [52] | TGI [53] | TGI [54] | TGI [55] | TGI [56] | TGI [57]
77.4 µM: TGI [46]

C[C@@H]1CN(CC(=O)N2CC(C)(C)c3nc(CO)c(Cc4ccc(F)cc4)cc32)[C@@H](CN2CCOC[C@H]2C)CN1
48 µM: TGI [2]
23.6 µM: TGI [56]
0.088 µM: TGI [29]
77.9 µM: TGI [52]
37.5 µM: TGI [33]
32.4 µM: TGI [50]
96.2 µM: TGI [9]
> 100 µM: TGI [3] | TGI [4] | TGI [58] | TGI [5] | TGI [7] | TGI [10] | TGI [14] | TGI [15] | TGI [17] | TGI [18] | TGI [20] | TGI [21] | TGI [23] | TGI [24] | TGI [26] | TGI [28] | TGI [30] | TGI [31] | TGI [32] | TGI [34] | TGI [36] | TGI [37] | TGI [39] | TGI [40] | TGI [41] | TGI [42] | TGI [44] | TGI [45] | TGI [47] | TGI [48] | TGI [49] | TGI [51] | TGI [54] | TGI [57]
73.3 µM: TGI [46]
63.9 µM: TGI [35]
71.6 µM: TGI [55]
active: GI50 [29] 0.0235 µM | GI50 [41] 0.162 µM
47.8 µM: TGI [43]
33.1 µM: TGI [38]
19.7 µM: TGI [19]
37.9 µM: TGI [13]
76.2 µM: TGI [1]
28.3 µM: TGI [16]
41.4 µM: TGI [6]
inactive: GI50 [1] 26.6 µM | GI50 [2] 21.9 µM | GI50 [3] 19.7 µM | GI50 [4] > 100 µM | GI50 [58] 31.3 µM | GI50 [5] > 100 µM | GI50 [6] 21.3 µM | GI50 [7] 82.1 µM | GI50 [8] 2.02 µM | GI50 [9] 25.8 µM | GI50 [10] > 100 µM | GI50 [12] 15.3 µM | GI50 [13] 18.6 µM | GI50 [14] 51.8 µM | GI50 [15] > 100 µM | GI50 [16] 15 µM | GI50 [17] > 100 µM | GI50 [18] > 100 µM | GI50 [19] 3.79 µM | GI50 [20] > 100 µM | GI50 [21] 61.6 µM | GI50 [23] 96.7 µM | GI50 [24] 32.1 µM | GI50 [25] 22.2 µM | GI50 [26] 47.4 µM | GI50 [27] 23.6 µM | GI50 [28] 31.4 µM | GI50 [30] 37 µM | GI50 [31] 37.1 µM | GI50 [32] > 100 µM | GI50 [33] 18.6 µM | GI50 [34] 58.5 µM | GI50 [35] 5.01 µM | GI50 [36] 64.1 µM | GI50 [37] 78.2 µM | GI50 [38] 17.5 µM | GI50 [39] > 100 µM | GI50 [40] > 100 µM | GI50 [42] 75.5 µM | GI50 [43] 17.2 µM | GI50 [44] > 100 µM | GI50 [45] > 100 µM | GI50 [46] 18.9 µM | GI50 [47] 46.2 µM | GI50 [48] 25 µM | GI50 [49] 45.9 µM | GI50 [50] 17.1 µM | GI50 [51] 20.6 µM | GI50 [52] 24.4 µM | GI50 [53] 16 µM | GI50 [54] 68.5 µM | GI50 [55] 21.8 µM | GI50 [56] 6.85 µM | GI50 [57] 36.9 µM
65.8 µM: TGI [27]
21.8 µM: TGI [8]
49.2 µM: TGI [25]
31.1 µM: TGI [12] | TGI [53]
